Test results reported in PubChem BioAssay AID588617 (The Scripps Research Institute Molecular Screening Center, 2011).

Target: Krueppel-like factor 5 (Homo sapiens) (UniProt Q13887)
Experiment: KLF5 protein abundance by immunoblot – western blot, chemiluminescence, DLD-1 cells, counter-screen for KLF5 inhibitor project, late-stage follow-up (AID 588617)
Conditions: 24 h, at 10 µM, active compounds read high

Sequence of Krueppel-like factor 5 (Homo sapiens) (Q13887 whole entry, looked up): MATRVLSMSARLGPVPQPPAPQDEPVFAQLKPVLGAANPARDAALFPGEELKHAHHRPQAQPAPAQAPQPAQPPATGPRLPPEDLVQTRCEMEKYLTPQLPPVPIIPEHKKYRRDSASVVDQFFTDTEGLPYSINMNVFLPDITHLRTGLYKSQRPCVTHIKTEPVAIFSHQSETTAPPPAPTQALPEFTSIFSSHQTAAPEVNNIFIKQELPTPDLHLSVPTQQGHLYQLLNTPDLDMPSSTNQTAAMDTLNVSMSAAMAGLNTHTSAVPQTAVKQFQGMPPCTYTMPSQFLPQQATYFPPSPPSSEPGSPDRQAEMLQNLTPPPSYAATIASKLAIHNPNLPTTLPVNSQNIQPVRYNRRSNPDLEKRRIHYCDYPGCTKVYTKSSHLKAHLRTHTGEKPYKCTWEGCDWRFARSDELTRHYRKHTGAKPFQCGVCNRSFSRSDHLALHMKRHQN

CN(C(=O)COC(=O)/C=C/c1cccc([N+](=O)[O-])c1)C1CCS(=O)(=O)C1 (stereo unspecified)
inhibition: 30.1%
